{"source": "PubChem BioAssay AID540345", "about": "(The Scripps Research Institute Molecular Screening Center, 2011)", "test_in_all_cases": "off-target binding and CYP inhibition panel, profiling panel, selectivity assay for GPR7 antagonist project, biochemical, Ricerca HitProfilingScreen, CYP450, set 2 (AID 540345)", "key": {"[1]": {"biological_target": "Muscarinic acetylcholine receptor M3 (Homo sapiens) (UniProt P20309)", "sequence (P20309 whole entry, looked up)": "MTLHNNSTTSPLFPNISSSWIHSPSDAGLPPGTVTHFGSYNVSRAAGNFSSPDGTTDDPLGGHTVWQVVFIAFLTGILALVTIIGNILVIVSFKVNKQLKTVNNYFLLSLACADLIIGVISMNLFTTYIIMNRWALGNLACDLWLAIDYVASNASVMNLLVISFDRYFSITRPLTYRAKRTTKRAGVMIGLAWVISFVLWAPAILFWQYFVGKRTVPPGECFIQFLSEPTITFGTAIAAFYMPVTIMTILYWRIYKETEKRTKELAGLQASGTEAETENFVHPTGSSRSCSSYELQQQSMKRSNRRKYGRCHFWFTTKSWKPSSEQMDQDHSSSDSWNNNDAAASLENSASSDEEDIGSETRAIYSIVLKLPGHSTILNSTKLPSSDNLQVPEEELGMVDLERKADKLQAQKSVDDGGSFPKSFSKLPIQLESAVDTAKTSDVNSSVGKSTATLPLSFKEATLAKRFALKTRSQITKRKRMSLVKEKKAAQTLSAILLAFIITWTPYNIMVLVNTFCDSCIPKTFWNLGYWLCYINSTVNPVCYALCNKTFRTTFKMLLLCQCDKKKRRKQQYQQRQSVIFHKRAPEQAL", "conditions": "Ricerca radioligand binding/CYP panel, at 10 µM, hits give high values"}, "[2]": {"system": "Sodium Channel", "conditions": "Ricerca radioligand binding/CYP panel, Site 2, at 10 µM, hits give high values"}, "[3]": {"system": "Prostanoid EP4", "conditions": "Ricerca radioligand binding/CYP panel, at 10 µM, hits give high values"}, "[4]": {"biological_target": "Beta-2 adrenergic receptor (Homo sapiens) (UniProt P07550)", "conditions": "Ricerca radioligand binding/CYP panel; Adrenergic beta2; at 10 µM; hits give high values"}, "[5]": {"biological_target": "Cytochrome P450 2D6 (Homo sapiens) (UniProt P10635)", "sequence (P10635 whole entry, looked up)": "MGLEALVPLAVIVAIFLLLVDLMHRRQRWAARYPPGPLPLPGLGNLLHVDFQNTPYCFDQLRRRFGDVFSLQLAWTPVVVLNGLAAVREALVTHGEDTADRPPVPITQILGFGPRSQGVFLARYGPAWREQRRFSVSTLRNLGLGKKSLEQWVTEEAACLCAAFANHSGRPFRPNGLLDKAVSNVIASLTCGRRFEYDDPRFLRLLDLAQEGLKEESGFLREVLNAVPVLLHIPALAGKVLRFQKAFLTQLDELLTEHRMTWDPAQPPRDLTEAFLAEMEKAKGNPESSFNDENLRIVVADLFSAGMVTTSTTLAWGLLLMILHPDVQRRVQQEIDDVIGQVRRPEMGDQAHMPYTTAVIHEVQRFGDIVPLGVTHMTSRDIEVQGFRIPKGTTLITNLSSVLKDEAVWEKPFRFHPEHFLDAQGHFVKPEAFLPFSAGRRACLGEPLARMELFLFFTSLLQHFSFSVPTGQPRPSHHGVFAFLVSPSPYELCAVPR", "conditions": "Ricerca radioligand binding/CYP panel; CYP450 2D6; at 10 µM; hits give high values"}, "[6]": {"biological_target": "Alpha-2A adrenergic receptor (Homo sapiens) (UniProt P08913)", "conditions": "Ricerca radioligand binding/CYP panel; Adrenergic alpha2A; at 10 µM; hits give high values"}, "[7]": {"system": "Adenosine A2A", "conditions": "Ricerca radioligand binding/CYP panel, at 10 µM, hits give high values"}, "[8]": {"system": "Transporter Norepinephrine (NET)", "conditions": "Ricerca radioligand binding/CYP panel, at 10 µM, hits give high values"}, "[9]": {"biological_target": "Cytochrome P450 2C9 (Homo sapiens) (UniProt P11712)", "sequence (P11712 whole entry, looked up)": "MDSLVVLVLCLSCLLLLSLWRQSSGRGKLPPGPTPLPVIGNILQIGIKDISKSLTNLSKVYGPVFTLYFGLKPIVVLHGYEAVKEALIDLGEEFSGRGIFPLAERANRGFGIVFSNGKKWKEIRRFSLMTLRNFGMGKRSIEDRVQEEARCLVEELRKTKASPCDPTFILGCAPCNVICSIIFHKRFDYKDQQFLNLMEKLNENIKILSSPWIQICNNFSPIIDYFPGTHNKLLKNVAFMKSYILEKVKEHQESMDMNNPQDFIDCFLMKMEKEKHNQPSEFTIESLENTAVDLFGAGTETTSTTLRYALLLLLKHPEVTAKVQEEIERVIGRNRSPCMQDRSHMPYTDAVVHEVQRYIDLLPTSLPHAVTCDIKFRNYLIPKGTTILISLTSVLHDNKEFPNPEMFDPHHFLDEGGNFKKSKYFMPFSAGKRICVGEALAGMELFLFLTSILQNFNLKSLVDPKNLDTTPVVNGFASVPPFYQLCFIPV", "conditions": "Ricerca radioligand binding/CYP panel; CYP450 2C9; at 10 µM; hits give high values"}, "[10]": {"system": "Glutamate NMDA", "conditions": "Ricerca radioligand binding/CYP panel, Phencyclidine site, at 10 µM, hits give high values"}, "[11]": {"system": "Histamine H1", "conditions": "Ricerca radioligand binding/CYP panel, at 10 µM, hits give high values"}, "[12]": {"biological_target": "Muscarinic acetylcholine receptor M2 (Homo sapiens) (UniProt P08172)", "sequence (P08172 whole entry, looked up)": "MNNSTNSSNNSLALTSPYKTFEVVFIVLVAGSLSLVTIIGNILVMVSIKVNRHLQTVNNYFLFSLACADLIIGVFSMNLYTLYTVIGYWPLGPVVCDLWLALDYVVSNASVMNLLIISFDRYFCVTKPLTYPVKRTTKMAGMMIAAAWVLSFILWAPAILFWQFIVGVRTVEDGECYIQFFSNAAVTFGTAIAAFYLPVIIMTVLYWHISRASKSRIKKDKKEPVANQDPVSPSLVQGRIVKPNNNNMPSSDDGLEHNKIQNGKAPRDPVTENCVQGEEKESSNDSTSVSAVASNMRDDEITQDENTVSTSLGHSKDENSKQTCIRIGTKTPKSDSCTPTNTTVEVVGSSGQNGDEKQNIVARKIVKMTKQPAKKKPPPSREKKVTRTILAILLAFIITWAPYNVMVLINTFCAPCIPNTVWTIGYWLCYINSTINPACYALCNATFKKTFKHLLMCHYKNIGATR", "conditions": "Ricerca radioligand binding/CYP panel, at 10 µM, hits give high values"}, "[13]": {"system": "Alpha-2A adrenergic receptor (Homo sapiens) + Histamine H1 receptor (Homo sapiens) + Mu-type opioid receptor (Homo sapiens)", "conditions": "Ricerca radioligand binding/CYP panel; at 10 µM; hits give high values"}, "[14]": {"biological_target": "D(1A) dopamine receptor (Homo sapiens) (UniProt P21728)", "sequence (P21728 whole entry, looked up)": "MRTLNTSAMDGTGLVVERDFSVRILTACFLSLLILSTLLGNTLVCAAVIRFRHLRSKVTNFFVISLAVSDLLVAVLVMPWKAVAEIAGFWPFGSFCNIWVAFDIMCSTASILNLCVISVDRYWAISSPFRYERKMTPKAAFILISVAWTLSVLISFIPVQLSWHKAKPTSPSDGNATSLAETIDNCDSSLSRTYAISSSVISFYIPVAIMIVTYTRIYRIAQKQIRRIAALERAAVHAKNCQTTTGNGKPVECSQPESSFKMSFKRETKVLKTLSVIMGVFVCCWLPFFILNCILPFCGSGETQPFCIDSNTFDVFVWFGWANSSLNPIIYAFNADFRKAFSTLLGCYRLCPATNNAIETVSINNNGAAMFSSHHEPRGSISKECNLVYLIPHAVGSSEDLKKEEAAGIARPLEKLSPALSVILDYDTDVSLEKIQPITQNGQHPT", "conditions": "Ricerca radioligand binding/CYP panel; Dopamine D1; at 10 µM; hits give high values"}, "[15]": {"biological_target": "Voltage-gated inwardly rectifying potassium channel KCNH2 (Homo sapiens) (UniProt Q12809)", "sequence (Q12809 whole entry, looked up)": "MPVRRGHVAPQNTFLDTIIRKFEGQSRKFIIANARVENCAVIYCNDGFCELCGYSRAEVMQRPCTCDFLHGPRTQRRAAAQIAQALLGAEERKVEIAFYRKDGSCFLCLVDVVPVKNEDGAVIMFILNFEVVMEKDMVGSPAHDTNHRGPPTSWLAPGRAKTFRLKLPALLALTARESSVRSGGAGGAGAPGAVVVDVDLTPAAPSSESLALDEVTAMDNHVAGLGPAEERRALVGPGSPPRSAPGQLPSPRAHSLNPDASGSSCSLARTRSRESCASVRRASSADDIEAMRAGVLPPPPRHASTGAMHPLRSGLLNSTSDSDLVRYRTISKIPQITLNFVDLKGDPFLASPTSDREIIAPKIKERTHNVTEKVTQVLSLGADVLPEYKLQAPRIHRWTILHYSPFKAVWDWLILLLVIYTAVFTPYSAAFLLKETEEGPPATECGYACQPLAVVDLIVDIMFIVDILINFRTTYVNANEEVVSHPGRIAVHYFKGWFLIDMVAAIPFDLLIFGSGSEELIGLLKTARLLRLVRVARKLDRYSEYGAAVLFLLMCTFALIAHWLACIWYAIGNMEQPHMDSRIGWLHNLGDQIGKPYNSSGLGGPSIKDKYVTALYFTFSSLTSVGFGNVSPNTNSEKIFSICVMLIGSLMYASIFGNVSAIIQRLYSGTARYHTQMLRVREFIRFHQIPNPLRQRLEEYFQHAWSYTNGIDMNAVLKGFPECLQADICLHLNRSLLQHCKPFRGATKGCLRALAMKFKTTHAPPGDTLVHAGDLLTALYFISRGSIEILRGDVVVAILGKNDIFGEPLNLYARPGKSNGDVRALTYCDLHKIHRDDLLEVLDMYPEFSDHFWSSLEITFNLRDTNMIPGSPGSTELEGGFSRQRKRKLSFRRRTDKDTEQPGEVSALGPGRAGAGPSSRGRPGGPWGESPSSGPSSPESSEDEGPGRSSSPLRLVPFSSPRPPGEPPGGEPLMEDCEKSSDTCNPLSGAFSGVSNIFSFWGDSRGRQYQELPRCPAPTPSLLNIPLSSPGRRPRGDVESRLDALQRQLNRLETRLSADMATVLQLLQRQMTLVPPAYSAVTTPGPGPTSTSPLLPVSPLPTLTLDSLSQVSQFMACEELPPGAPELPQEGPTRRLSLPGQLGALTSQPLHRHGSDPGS", "conditions": "Ricerca radioligand binding/CYP panel; Potassium Channel hERG; at 10 µM; hits give high values"}, "[16]": {"system": "Calcium Channel L-Type", "conditions": "Ricerca radioligand binding/CYP panel, Dihydropyridine site, at 10 µM, hits give high values"}, "[17]": {"system": "Nicotinic Acetylcholine", "conditions": "Ricerca radioligand binding/CYP panel, at 10 µM, hits give high values"}, "[18]": {"system": "CYP450 2C19", "conditions": "Ricerca radioligand binding/CYP panel, at 10 µM, hits give high values"}, "[19]": {"system": "Adenosine A1", "conditions": "Ricerca radioligand binding/CYP panel, at 10 µM, hits give high values"}, "[20]": {"system": "Sigma 1", "conditions": "Ricerca radioligand binding/CYP panel, at 10 µM, hits give high values"}, "[21]": {"system": "Dopamine D2S", "conditions": "Ricerca radioligand binding/CYP panel, at 10 µM, hits give high values"}, "[22]": {"system": "Cannabinoid CB1", "conditions": "Ricerca radioligand binding/CYP panel, at 10 µM, hits give high values"}, "[23]": {"biological_target": "Cytochrome P450 3A4 (Homo sapiens) (UniProt P08684)", "conditions": "Ricerca radioligand binding/CYP panel; CYP450 3A4; at 10 µM; hits give high values"}, "[24]": {"biological_target": "5-hydroxytryptamine receptor 2B (Homo sapiens) (UniProt P41595)", "sequence (P41595 whole entry, looked up)": "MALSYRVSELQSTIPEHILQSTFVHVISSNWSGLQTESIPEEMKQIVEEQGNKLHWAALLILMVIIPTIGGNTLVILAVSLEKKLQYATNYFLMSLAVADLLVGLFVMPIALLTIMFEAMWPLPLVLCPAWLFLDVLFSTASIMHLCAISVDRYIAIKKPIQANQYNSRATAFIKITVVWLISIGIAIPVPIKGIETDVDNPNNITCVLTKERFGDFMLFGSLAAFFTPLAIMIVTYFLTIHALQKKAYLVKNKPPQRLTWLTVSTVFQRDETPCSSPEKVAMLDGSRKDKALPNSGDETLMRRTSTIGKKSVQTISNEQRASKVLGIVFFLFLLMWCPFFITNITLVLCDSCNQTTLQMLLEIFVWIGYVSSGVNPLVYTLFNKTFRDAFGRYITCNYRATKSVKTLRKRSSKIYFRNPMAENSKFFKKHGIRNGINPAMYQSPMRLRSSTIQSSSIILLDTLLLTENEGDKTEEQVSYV", "conditions": "Ricerca radioligand binding/CYP panel; Serotonin (5-Hydroxytryptamine) 5-HT2B; at 10 µM; hits give high values"}, "[25]": {"system": "Opiate mu (OP3, MOP)", "conditions": "Ricerca radioligand binding/CYP panel, at 10 µM, hits give high values"}, "[26]": {"system": "Adrenergic alpha1B", "conditions": "Ricerca radioligand binding/CYP panel, at 10 µM, hits give high values"}, "[27]": {"biological_target": "Cytochrome P450 1A2 (Homo sapiens) (UniProt P05177)", "sequence (P05177 whole entry, looked up)": "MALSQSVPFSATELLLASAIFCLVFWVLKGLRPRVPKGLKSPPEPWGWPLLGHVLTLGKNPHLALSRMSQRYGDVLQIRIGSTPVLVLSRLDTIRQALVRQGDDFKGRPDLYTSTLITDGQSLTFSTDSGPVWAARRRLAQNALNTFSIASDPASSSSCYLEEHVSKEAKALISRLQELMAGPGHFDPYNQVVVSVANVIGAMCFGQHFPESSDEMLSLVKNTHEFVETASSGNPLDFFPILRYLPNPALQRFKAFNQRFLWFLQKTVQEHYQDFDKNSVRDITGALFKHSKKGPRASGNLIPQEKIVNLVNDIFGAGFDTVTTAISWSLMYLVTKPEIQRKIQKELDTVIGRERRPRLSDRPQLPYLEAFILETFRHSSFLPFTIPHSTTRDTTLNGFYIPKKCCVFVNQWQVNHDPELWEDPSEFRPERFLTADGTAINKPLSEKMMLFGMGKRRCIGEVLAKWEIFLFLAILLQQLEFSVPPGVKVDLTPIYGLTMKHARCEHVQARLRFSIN", "conditions": "Ricerca radioligand binding/CYP panel; CYP450 1A2; at 10 µM; hits give high values"}, "[28]": {"system": "Adrenergic alpha1A", "conditions": "Ricerca radioligand binding/CYP panel, at 10 µM, hits give high values"}, "[29]": {"system": "Adrenergic beta1", "conditions": "Ricerca radioligand binding/CYP panel, at 10 µM, hits give high values"}, "[30]": {"system": "GABAA", "conditions": "Ricerca radioligand binding/CYP panel, central, at 10 µM, hits give high values"}}, "note": "The source made the active and inactive calls. How the calls were made is not given here."}
{"smiles": "COc1ccc(Oc2c(Cl)cnn(C3c4ccccc4-c4ccccc43)c2=O)cc1", "values": [{"measurement": "inhibition", "setting": "[1]", "value": "-1% (inactive)"}, {"measurement": "inhibition", "setting": "[2]", "value": "36% (inactive)"}, {"measurement": "inhibition", "setting": "[3]", "value": "5% (inactive)"}, {"measurement": "inhibition", "setting": "[4]", "value": "4% (inactive)"}, {"measurement": "inhibition", "setting": "[5]", "value": "2% (inactive)"}, {"measurement": "inhibition", "setting": "[6]", "value": "5% (inactive)"}, {"measurement": "inhibition", "setting": "[7]", "value": "15% (inactive)"}, {"measurement": "inhibition", "setting": "[8]", "value": "42% (inactive)"}, {"measurement": "inhibition", "setting": "[9]", "value": "13% (inactive)"}, {"measurement": "inhibition", "setting": "[10]", "value": "-18% (inactive)"}, {"measurement": "inhibition", "setting": "[11]", "value": "17% (inactive)"}, {"measurement": "inhibition", "setting": "[12]", "value": "-2% (inactive)"}, {"measurement": "inhibition", "setting": "[13]", "value": "8% (inactive)"}, {"measurement": "inhibition", "setting": "[14]", "value": "14% (inactive)"}, {"measurement": "inhibition", "setting": "[15]", "value": "28% (inactive)"}, {"measurement": "inhibition", "setting": "[16]", "value": "33% (inactive)"}, {"measurement": "inhibition", "setting": "[17]", "value": "-16% (inactive)"}, {"measurement": "inhibition", "setting": "[18]", "value": 51, "unit": "%"}, {"measurement": "inhibition", "setting": "[19]", "value": "7% (inactive)"}, {"measurement": "inhibition", "setting": "[20]", "value": "6% (inactive)"}, {"measurement": "inhibition", "setting": "[21]", "value": "-1% (inactive)"}, {"measurement": "inhibition", "setting": "[22]", "value": "9% (inactive)"}, {"measurement": "inhibition", "setting": "[23]", "value": "26% (inactive)"}, {"measurement": "inhibition", "setting": "[24]", "value": 63, "unit": "%"}, {"measurement": "inhibition", "setting": "[25]", "value": "1% (inactive)"}, {"measurement": "inhibition", "setting": "[26]", "value": "8% (inactive)"}, {"measurement": "inhibition", "setting": "[27]", "value": 67, "unit": "%"}, {"measurement": "inhibition", "setting": "[28]", "value": "-1% (inactive)"}, {"measurement": "inhibition", "setting": "[29]", "value": "7% (inactive)"}, {"measurement": "inhibition", "setting": "[30]; Flunitrazepam site", "value": "0% (inactive)"}, {"measurement": "inhibition", "setting": "[30]; Muscimol site", "value": "7% (inactive)"}]}
